# pIC50: −log10 of the molar value. Counter-ions that a name gives are not always drawn. Like-named read-outs stand apart in the source and are kept apart here.
# Legend:
# [1] = tested on: phosphorylation of the IRF-3 protein in MDA-MB-468 cells; test: pIRF3 immunocytochemistry cell based assay; settings: MDA-MB-468 cells, Poly(I:C) stimulation, read-out: pIRF3 IC50
# How it was run: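 After 2 h stimulation with Poly(I:C) (10 ug/ml), following 1 h compound pre-treatment (10-point, 3-fold dilution, top 10 uM), MDA-MB-468 cells were fixed and stained with anti-pIRF3 antibody. pIRF3 fluorescence was normalized to PI staining or cell count on an Acumen cytometer. IC50 curves were derived from this.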
# IKKε = biological target: T1, IKKε (Homo sapiens, UniProt Q14164); test: IKKe Biochemical Assay; settings: read-out: IKKε IC50
# T1 sequence (Q14164 1-716): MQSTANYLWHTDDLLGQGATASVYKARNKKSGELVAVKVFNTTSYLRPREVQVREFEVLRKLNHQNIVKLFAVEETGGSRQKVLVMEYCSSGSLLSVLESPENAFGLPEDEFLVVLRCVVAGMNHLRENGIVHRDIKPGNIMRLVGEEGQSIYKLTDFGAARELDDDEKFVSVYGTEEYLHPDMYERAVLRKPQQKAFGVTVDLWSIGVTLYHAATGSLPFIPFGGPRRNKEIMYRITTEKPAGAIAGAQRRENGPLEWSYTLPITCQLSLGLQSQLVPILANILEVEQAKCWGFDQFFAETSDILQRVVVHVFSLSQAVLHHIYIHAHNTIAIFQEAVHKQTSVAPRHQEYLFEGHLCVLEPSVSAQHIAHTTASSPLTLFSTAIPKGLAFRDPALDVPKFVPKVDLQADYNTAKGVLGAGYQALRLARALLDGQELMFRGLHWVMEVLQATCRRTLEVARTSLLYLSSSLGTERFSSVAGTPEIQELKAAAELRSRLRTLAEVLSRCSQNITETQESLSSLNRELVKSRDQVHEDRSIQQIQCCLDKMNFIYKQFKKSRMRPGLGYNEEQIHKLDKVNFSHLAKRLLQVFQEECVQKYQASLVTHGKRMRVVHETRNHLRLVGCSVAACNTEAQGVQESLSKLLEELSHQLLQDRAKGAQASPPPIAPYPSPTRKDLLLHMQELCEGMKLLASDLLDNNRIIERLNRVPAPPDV
# How it was run: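 Activity was measured as mobility-shift separation of phosphorylated from unphosphorylated substrate on a LabChip EZ Reader. Compound was titrated from 30 uM final in 10 points, 1:4 steps, with 1% DMSO, and enzyme plus substrate reacted 90 min at 25° C before stop buffer. Control wells held 10 uM staurosporine.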
# TBK1 = biological target: T2, TBK1 (Homo sapiens, UniProt Q9UHD2); test: TBK Biochemical Assay; settings: read-out: TBK1 IC50
# T2 sequence (Q9UHD2 1-729): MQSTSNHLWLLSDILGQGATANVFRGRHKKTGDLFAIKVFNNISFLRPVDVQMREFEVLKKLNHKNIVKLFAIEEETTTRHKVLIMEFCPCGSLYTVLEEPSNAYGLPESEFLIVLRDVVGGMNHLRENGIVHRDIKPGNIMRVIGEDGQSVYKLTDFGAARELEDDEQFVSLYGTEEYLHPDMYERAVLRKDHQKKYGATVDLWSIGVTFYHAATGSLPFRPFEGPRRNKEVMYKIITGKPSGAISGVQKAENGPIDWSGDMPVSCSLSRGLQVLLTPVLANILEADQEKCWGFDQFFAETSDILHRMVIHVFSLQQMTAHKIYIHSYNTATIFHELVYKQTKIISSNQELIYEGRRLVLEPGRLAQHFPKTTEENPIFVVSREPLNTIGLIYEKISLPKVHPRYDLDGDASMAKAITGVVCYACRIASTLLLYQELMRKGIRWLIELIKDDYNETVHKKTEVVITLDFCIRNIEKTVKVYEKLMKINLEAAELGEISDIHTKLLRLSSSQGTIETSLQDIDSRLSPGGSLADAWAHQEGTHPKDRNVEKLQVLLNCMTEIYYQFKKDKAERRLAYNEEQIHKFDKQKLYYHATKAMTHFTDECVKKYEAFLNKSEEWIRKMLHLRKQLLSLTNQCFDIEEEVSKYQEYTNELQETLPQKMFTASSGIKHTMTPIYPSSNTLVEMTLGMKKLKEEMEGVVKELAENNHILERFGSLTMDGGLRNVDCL
# How it was run: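 Caliper LabChip mobility-shift readout of substrate and product after 90 min of TBK1 reaction at 25° C and stop-buffer addition. Compounds tested in 1:4 serial dilution over 10 points from 30 uM final at 1% DMSO; staurosporine 10 uM final defines full inhibition.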
Compound,pIC50 ([1]; Homo sapiens),pIC50 (IKKε),pIC50 (TBK1),pIC50 [1]
"COc1cc(C(=O)NC2CCNCC2)ccc1-c1cc2nccc(-c3ccc(OC4CCOCC4)c(C#N)c3)c2o1 [Compound 62, 4-{7-[3-Cyano-4-(tetrahydro-pyran-4-yloxy)-phenyl]-furo[3,2-b]pyridin-2-yl}-3-methoxy-N-piperidin-4-yl-benzamide hydrochloride]",6.00 to 7.00,> 7.00,> 7.00,–
"COc1cc(C(=O)N(C)OC)ccc1-c1cc2nccc(-c3ccc(OC4CCOCC4)c(C#N)c3)c2o1 [Compound 53, 4-{7-[3-Cyano-4-(tetrahydro-pyran-4-yloxy)-phenyl]-furo[3,2-b]pyridin-2-yl}-3,N-dimethoxy-N-methyl-benzamide]",6.00 to 7.00,> 7.00,> 7.00,–
"CC(C)N1CCN(C(=O)c2ccc(-c3cc4nccc(-c5ccc(OC6CCOCC6)c(C#N)c5)c4o3)cc2)CC1 [Compound 116, 5-{2-[4-(4-Isopropyl-piperazine-1-carbonyl)-phenyl]-furo[3,2-b]pyridin-7-yl}-2-(tetrahydro-pyran-4-yloxy)-benzonitrile]",6.00 to 7.00,> 7.00,> 7.00,–
"COc1cc(C(=O)N2CC(F)(F)C2)ccc1-c1cc2nccc(-c3ccc(OC4CCOCC4)c(C#N)c3)c2o1 [Compound 77, 5-{2-[4-(3,3-Difluoro-azetidine-1-carbonyl)-2-methoxy-phenyl]-furo[3,2-b]pyridin-7-yl}-2-(tetrahydro-pyran-4-yloxy)-benzonitrile]",6.00 to 7.00,> 7.00,> 7.00,–
"COc1cc(C(=O)N2CCC(O)C2)ccc1-c1cc2nccc(-c3ccc(NC4CCOCC4)c(C#N)c3)c2o1 (stereo not drawn) [Compound 104, 5-{2-[4-(3-Hydroxy-pyrrolidine-1-carbonyl)-2-methoxy-phenyl]-furo[3,2-b]pyridin-7-yl}-2-(tetrahydro-pyran-4-ylamino)-benzonitrile]",6.00 to 7.00,> 7.00,> 7.00,–
"COc1cc(C(=O)N(C)C)ccc1-c1cc2nccc(-c3ccc(N4CC[C@H](F)C4)c(C#N)c3)c2o1 [Compound 23, 4-{7-[3-Cyano-4-((S)-3-fluoro-pyrrolidin-1-yl)-phenyl]-furo[3,2-b]pyridin-2-yl}-3-methoxy-N,N-dimethyl-benzamide]",6.00 to 7.00,> 7.00,> 7.00,–
"COc1cc(C(=O)N2CC(CO)C2)ccc1-c1cc2nccc(-c3ccc(OC4CCOCC4)c(C#N)c3)c2o1 [Compound 38, 5-{2-[4-(3-Hydroxymethyl-azetidine-1-carbonyl)-2-methoxy-phenyl]-furo[3,2-b]pyridin-7-yl}-2-(tetrahydro-pyran-4-yloxy)-benzonitrile]",6.00 to 7.00,> 7.00,> 7.00,–

# Further lines, results first:
pIC50 ([1]; Homo sapiens),pIC50 (IKKε),pIC50 (TBK1),pIC50 [1],Compound
–,> 7.00,> 7.00,6.00 to 7.00,"COc1cc(C(=O)N[C@H]2[C@@H]3C[C@H]2CN(C)C3)ccc1-c1cc2nccc(-c3ccc(OC4CCOCC4)c(C#N)c3)c2o1 (single isomer, unassigned) [Compound 366]"
5.30 to 6.00,> 7.00,6.00 to 7.00,–,"CN(C)C(=O)c1cc(F)c(-c2cc3nccc(-c4ccc(NC5CCOCC5)c(C#N)c4)c3o2)c(F)c1 [Compound 295, 4-(7-[3-cyano-4-[(oxan-4-yl)amino]phenyl]furo[3,2-b]pyridin-2-yl)-3,5-difluoro-N,N-dimethylbenzamide hydrochloride]"
6.00 to 7.00,> 7.00,> 7.00,–,"COc1cc(C(=O)N(C)C)ncc1-c1cc2nccc(-c3ccc(NC4C5COCC54)c(C#N)c3)c2o1 (stereo not drawn) [Compound 437, 5-[7-[3-cyano-4-([3-oxabicyclo[3.1.0]hexan-6-yl]amino)phenyl]furo[3,2-b]pyridin-2-yl]-4-methoxy-N,N-dimethylpyridine-2-carboxamide]"
6.00 to 7.00,> 7.00,> 7.00,–,"COc1cc(C(=O)N(C)C)nnc1-c1cc2nccc(-c3ccc(OC4CCOCC4)c(C#N)c3)c2o1 [Compound 395, 6-[7-[3-cyano-4-(oxan-4-yloxy)phenyl]furo[3,2-b]pyridin-2-yl]-5-methoxy-N,N-dimethylpyridazine-3-carboxamide]"
> 7.00,> 7.00,> 7.00,–,"COc1cc(C(=O)N2CC[C@@H](N(C)C)C2)cnc1-c1cc2nccc(-c3ccc(N4CC[C@@H](F)C4)c(C#N)c3)c2o1 [Compound 456, 5-[2-(5-[[(3R)-3-(dimethylamino)pyrrolidin-1-yl]carbonyl]-3-methoxypyridin-2-yl) (R)-furo[3,2-b]pyridin-7-yl]-2-(3-fluoropyrrolidin-1-yl)benzonitrile]"
5.30 to 6.00,5.30 to 6.00,6.00 to 7.00,–,"COc1cc(C(=O)N(C)C)cnc1-c1cc2ncc(F)c(-c3ccc(NC4CCOCC4)c(C#N)n3)c2o1 [Compound 352, 6-(7-[6-cyano-5-[(oxan-4-yl)amino]pyridin-2-yl]-6-fluorofuro[3,2-b]pyridin-2-yl)-5-methoxy-N,N-dimethylpyridine-3-carboxamide]"
5.30 to 6.00,6.00 to 7.00,6.00 to 7.00,–,"COc1cc(C(=O)N(C)C)cnc1-c1cc2ncc(OC)c(-c3ccc(OC4CCOCC4)c(C#N)n3)c2o1 [Compound 338, 6-[7-[6-cyano-5-(oxan-4-yloxy)pyridin-2-yl]-6-methoxyfuro[3,2-b]pyridin-2-yl]-5-methoxy-N,N-dimethylpyridine-3-carboxamide hydrochloride]"
6.00 to 7.00,> 7.00,> 7.00,–,"COc1cc(C(=O)N(C)CCO)cnc1-c1cc2nccc(-c3ccc(NC4CCOCC4)c(C#N)n3)c2o1 [Compound 356, 6-(7-[6-cyano-5-[(oxan-4-yl)amino]pyridin-2-yl]furo[3,2-b]pyridin-2-yl)-N-(2-hydroxyethyl)-5-methoxy-N-methylpyridine-3-carboxamide]"
5.30 to 6.00,5.30 to 6.00,5.30 to 6.00,–,"COc1cc(C(=O)N(C)C)ccc1-c1cc2nccc(-c3ccc(OC4CN(C(C)C)C4)c(C#N)c3)c2o1 [Compound 485, 4-{7-[3-Cyano-4-(1-isopropyl-azetidin-3-yloxy)-phenyl]-furo[3,2-b]pyridin-2-yl}-3-methoxy-N,N-dimethyl-benzamide]"
6.00 to 7.00,> 7.00,> 7.00,–,"COc1cc(C(=O)N2CC3CCC2CO3)ncc1-c1cc2nccc(-c3ccc(OC4CCOCC4)c(C#N)c3)c2o1 (stereo not drawn) [Compound 413, 5-[2-[4-methoxy-6-([2-oxa-5-azabicyclo[2.2.2]octan-5-yl]carbonyl)pyridin-3-yl]furo[3,2-b]pyridin-7-yl]-2-(oxan-4-yloxy)benzonitrile hydrochloride]"
6.00 to 7.00,> 7.00,> 7.00,–,"COc1cc(C(=O)N(C)C)cnc1-c1cc2nccc(-c3ccc(OC4CCNCC4(F)F)c(C#N)c3)c2o1 (stereo not drawn) [Compound 403, 6-(7-[3-cyano-4-[(3,3-difluoropiperidin-4-yl)oxy]phenyl]furo[3,2-b]pyridin-2-yl)-5-methoxy-N,N-dimethylpyridine-3-carboxamide]"

# Source: patent US10428080B2, “TBK/IKK inhibitor compounds and uses thereof” (Merck Patent GmbH, priority 2015, dated 2019)
